Laboratory results: patent publication US20080032953A1, “Method For Inhibiting Prebiotic Effect Of Food Proteins” (Royal Canin SA,, priority 2004, published 2008)

Columns and labels:
aerobic microflora = assay: Growth of cat oral bacterial microflora in artificial saliva with protein, with or without phosphate: aerobic count; assay type: cell-based; details: MP9007 1%
Description: (§1) For all the experiments, the bacterial microflora of the oral cavity was removed, kept in a conservation medium, and then cultured in artificial saliva according to the following protocol:
(§2) Two male cats of “European” race, weighing approximately 5.50 kg, were anesthetized with 0.3 ml of a solution of medetomidine at 0.085 g/100 ml (Domitor, ND) and 0.26 ml of a solution of ketamine at […] (Imalgene 1000, ND).
(§3) In each animal thus immobilized, the saliva was sterilely suctioned with a pipette and the base of the teeth, the gums and the gum pockets were scraped with the back of a sterile scalpel.
(§4) All the samples were transferred and well-diluted in 100 ml of a sterile conservation medium (thiocolate resazurin medium from Biokar supplemented with 25% of glycerol). The conservation medium containing the samples was transferred into tubes with microbeads (Cryobilles, ND from AES). These tubes were then incubated for 6 hours in an incubator at 37° C., in a jar under CO2, before being frozen for subsequent use.
(§5) When subsequently used, each tube is thawed at ambient temperature and then incubated for 12 hours at 37° C., in a jar under CO2. The aerobic and anaerobic bacteria are counted according to the methods described hereinafter. The content of each tube is subsequently diluted with the sterile conservation medium so as to have an inoculum of 5000 (3.70 log10) revivable microorganisms in 0.2 ml.
The aerobic microflora is cultured and then counted on a trypticase soy medium (Biokar) incubated at 37° C. for 48 hours.
(§6) The basic artificial saliva is prepared according to table 31 on page 244 of the manual Biological Handbooks—Metabolism, compiled and edited by Philip L. Altman and Dorothy S. Dittmer, published by Federation of American Societies for Experimental Biology, 1968.
(§7) This basic saliva is supplemented with L-cysteine at a rate of 0.5 g/liter in order to lower its redox potential so as to be able to grow therein both the aerobic bacterial microflora and the anaerobic bacterial microflora. The whole will subsequently be referred to as “artificial saliva”.
(§8) The artificial saliva is dispensed into test tubes at a rate of 20 ml per tube. Each tube is supplemented or not supplemented with the protein, in the presence or absence of the phosphate to be tested. Each treatment is composed of two tubes.
(§9) The whole is autoclaved at 110° C. for 15 minutes.
(§10) Each tube is subsequently inoculated with 0.2 ml of inoculum described above. The whole is incubated in an incubator at 37° C., with shaking.
(§11) After 24, 48 or 72 hours of incubation, the aerobic flora and the anaerobic flora are counted according to the methods described above.
(§12) The result of each treatment is the mean of the counts of two test tubes, expressed as log10 of C.F.U. (Colony Forming Units) per ml of artificial saliva.

anaerobic microflora = assay: Growth of cat oral bacterial microflora in artificial saliva with protein, with or without phosphate: anaerobic count; assay type: cell-based; details: MP9007 1%
Description: as §1, §2, §3, §4, §5
The anaerobic microflora is cultured and then counted on a Schaedler medium (Biokar) supplemented with 5% of sterile defibrinated sheep blood, incubated at 37° C., in a jar under CO2, for 48 hours.
as §6, §7, §8, §9, §10, §11, §12

[1] = Experiment 2, trisodium pyrophosphate 5%
[2] = Experiment 2, trisodium pyrophosphate 10%
[3] = Experiment 2, trisodium phosphate at 5%, from 24 hours of incubation
[4] = Experiment 2, trisodium phosphate incorporated at 10%
[5] = Experiment 3, trisodium pyrophosphate 0.5%

With `O=P([O-])([O-])OP(=O)([O-])O.[Na+].[Na+].[Na+]` [Trisodium pyrophosphate, trisodium pyrophosphate] the “Aerobic microflora CFU/ml, 24 hours” value (aerobic microflora; [1]) was 6.88 log10 CFU/ml, the “Aerobic microflora CFU/ml, 48 hours” value (aerobic microflora; [1]) was 7.56 log10 CFU/ml and the “Aerobic microflora CFU/ml, 72 hours” value (aerobic microflora; [1]) was 7.69 log10 CFU/ml. The “Aerobic microflora CFU/ml, 24 hours” value (aerobic microflora; [2]) was less than 4.00 log10 CFU/ml, the “Aerobic microflora CFU/ml, 48 hours” value (aerobic microflora; [2]) was 4.88 log10 CFU/ml and the “Aerobic microflora CFU/ml, 72 hours” value (aerobic microflora; [2]) was less than 4.00 log10 CFU/ml. The “Inhibitory effect on the prebiotic effect of MP9007, aerobic microflora (in words)” value (aerobic microflora; [3]) was “very substantial”, the “Inhibition of the prebiotic effect of the MP9007 protein, aerobic microflora (in words)” value (aerobic microflora; [4]) was “completely inhibited” and the “Aerobic microflora CFU/ml, 24 hours” value (aerobic microflora; [5]) was 7.75 log10 CFU/ml. The “Anaerobic microflora CFU/ml, 24 hours” value (anaerobic microflora; [1]) was 6.88 log10 CFU/ml, the “Anaerobic microflora CFU/ml, 48 hours” value (anaerobic microflora; [1]) was 7.46 log10 CFU/ml and the “Anaerobic microflora CFU/ml, 72 hours” value (anaerobic microflora; [1]) was 6.26 log10 CFU/ml. The “Anaerobic microflora CFU/ml, 24 hours” value (anaerobic microflora; [2]) was less than 4.00 log10 CFU/ml, the “Anaerobic microflora CFU/ml, 48 hours” value (anaerobic microflora; [2]) was less than 4.00 log10 CFU/ml and the “Anaerobic microflora CFU/ml, 72 hours” value (anaerobic microflora; [2]) was less than 4.00 log10 CFU/ml. The “Inhibitory effect on the prebiotic effect of MP9007, anaerobic microflora (in words)” value (anaerobic microflora; [3]) was “very substantial”, the “Inhibition of the prebiotic effect of the MP9007 protein, anaerobic microflora (in words)” value (anaerobic microflora; [4]) was “completely inhibited” and the “Anaerobic microflora CFU/ml, 24 hours” value (anaerobic microflora; [5]) was 7.75 log10 CFU/ml.
